{"source": "paper PMC7993394", "about": "(Journal of Enzyme Inhibition and Medicinal Chemistry, 2021)"}
{"target": "T1, BpHldC (Burkholderia pseudomallei, UniProt Q63XZ4)", "T1 construct": "gene BPSL0395", "T1 sequence (Q63XZ4 1-161 limits assumed)": "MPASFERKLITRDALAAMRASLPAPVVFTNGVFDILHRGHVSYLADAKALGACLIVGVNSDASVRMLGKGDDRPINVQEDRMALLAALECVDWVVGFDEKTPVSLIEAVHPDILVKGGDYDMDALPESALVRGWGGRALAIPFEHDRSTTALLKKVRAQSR", "assay": "biochemical", "units": {"IC50": "µM"}}
{"compound": "CCOC(=O)c1sc(NC(=O)CSc2nnc(Cc3ccccc3)o2)c(C#N)c1C", "note": "[compound 7929959, ethyl 5-({[(5-benzyl-1,3,4-oxadiazol-2-yl)thio]acetyl}amino)-4-cyano-3-methyl-2-thiophenecarboxylate]", "IC50": 10.9}
{"compound": "CCOC(=O)c1sc(NC(=O)CSc2nnc(-c3ccc(Cl)cc3)o2)c(C#N)c1C", "note": "[compound 7933420, ethyl 5-[({[5–(4-chlorophenyl)-1,3,4-oxadiazol-2-yl]thio}acetyl)amino]-4-cyano-3-methyl-2-thiophene carboxylate]", "IC50": 17.5}
{"compound": "CCOC(=O)c1sc(NC(=O)CSc2nnc(-c3ccccc3OCC)o2)c(C#N)c1C", "note": "[compound 7991890, ethyl 4-cyano-5-[({[5–(2-ethoxyphenyl)-1,3,4-oxadiazol-2-yl]thio}acetyl)amino]-3-methyl-2-thiophenecarboxylate]", "IC50": 47.1}
